Assay results published in patent US9090621B2, “Tyrosine kinase inhibitors” (Principia Biopharma Inc., priority 2013, dated 2015).
Like-named read-outs stand apart in the source and are kept apart here.

Experiments:
human recombinant Btk [1] = biological target: T1, human recombinant Btk (Homo sapiens (Human), UniProt Q06187); conditions: Caliper-based kinase assay; human recombinant Btk 2 nM, ATP 40 μM, peptide substrate 1 μM, room temperature 3 h;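 further: Read-out is the quantity of phosphorylated substrate product formed, and IC50 reflects inhibition of Btk kinase activity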
Method: (§1) A Caliper-based kinase assay (Caliper Life Sciences, Hopkinton, Mass.) was used to measure inhibition of Btk kinase activity of a compound of Formula (IA), (I′) or (I). […] The reaction was then terminated with EDTA, final concentration 20 mM and the phosphorylated reaction product was quantified on a Caliper Desktop Profiler (Caliper LabChip 3000). […] This value is presented as the IC50.

human recombinant Btk [2] = biological target: T1, human recombinant Btk; test: biochemical
Method: as §1

protein target = test: Reversibility of Binding (compound in solution before and after perturbation of the target, HPLC-MS/MS); conditions: for Compound in solution in the denatured or digested state?: after denaturation with 5 M guanidine hydrochloride and digestion with trypsin; for Compound in solution in the native state?: protein target at a higher concentration than the compound, before perturbation
Method: The following approach was developed to differentiate compounds that form irreversible bonds with their targets, such as acrylamide compounds, from compound that bind reversibly. […] The reactions were then treated with perturbations including both denaturation with 5 M guanidine hydrochloride and digestion with trypsin, disrupting proper folding of the target. […] The concentration of compound in solution was assessed both preceding and following perturbation using high performance liquid chromatography (HPLC) coupled to tandem mass spectrometry.

T1 sequence (Q06187 whole entry): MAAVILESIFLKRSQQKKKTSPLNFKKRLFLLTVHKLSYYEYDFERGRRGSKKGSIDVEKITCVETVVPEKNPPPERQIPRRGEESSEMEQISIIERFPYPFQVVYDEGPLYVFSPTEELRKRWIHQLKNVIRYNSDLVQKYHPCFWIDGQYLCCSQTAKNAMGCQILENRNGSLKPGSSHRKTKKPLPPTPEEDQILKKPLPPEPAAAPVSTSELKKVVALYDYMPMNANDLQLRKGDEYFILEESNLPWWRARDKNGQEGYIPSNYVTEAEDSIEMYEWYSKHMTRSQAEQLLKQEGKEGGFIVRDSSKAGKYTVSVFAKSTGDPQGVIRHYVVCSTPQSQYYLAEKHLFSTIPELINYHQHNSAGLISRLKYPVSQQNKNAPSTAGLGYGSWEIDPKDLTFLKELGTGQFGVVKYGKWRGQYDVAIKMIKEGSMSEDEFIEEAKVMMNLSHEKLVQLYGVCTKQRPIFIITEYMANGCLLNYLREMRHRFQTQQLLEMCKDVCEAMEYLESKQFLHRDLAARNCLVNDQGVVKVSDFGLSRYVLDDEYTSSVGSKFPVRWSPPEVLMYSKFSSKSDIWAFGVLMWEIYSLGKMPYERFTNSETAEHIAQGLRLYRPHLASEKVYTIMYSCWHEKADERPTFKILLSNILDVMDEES

| SMILES | IC50 (human recombinant Btk [1]) [nM] | IC50 (human recombinant Btk [2]) [nM] | also measured |
| --- | --- | --- | --- |
| N#CC(=CC1CC1)C(=O)N1CCC[C@H]1Cn1cc(-c2ccc(Oc3ccccc3)cc2F)c2c(N)ncnc21 [Example 59B, (S)-2-(2-((4-amino-5-(2-fluoro-4-phenoxyphenyl)-7H-pyrrolo[2,3-d]pyrimidin-7-yl)methyl)pyrrolidine-1-carbonyl)-3-cyclopropylacrylonitrile] | 26 |  |  |
| CC(C)(CNC(=O)C(C#N)=CC1CC1)Cn1nc(-c2ccc(Oc3ccccc3)cc2)c2c(N)ncnc21 [Example 67, N-(3-(4-amino-3-(4-phenoxyphenyl)-1H-pyrazolo[3,4-d]pyrimidin-1-yl)-2,2-dimethylpropyl)-2-cyano-3-cyclopropylacrylamide] | 27 |  |  |
| CCNC(C)(C)C=C(C#N)C(=O)N1CCCC1Cn1nc(-c2ccc(Oc3ccccc3)cc2F)c2c(N)ncnc21 (stereo in doubt) [Example 85A, (S)-2-(2-((4-amino-3-(2-fluoro-4-phenoxyphenyl)-1H-pyrazolo[3,4-d]pyrimidin-1-yl)methyl)pyrrolidine-1-carbonyl)-4-(ethylamino)-4-methylpent-2-enenitrile] | 0.4 |  |  |
| CC(C)(C)C=C(C#N)C(=O)N1CCC[C@@H]1Cn1cc(-c2ccc(Oc3cccc(F)c3F)cc2)c2c(N)ncnc21 [Example 173B] | 34 |  |  |
| CC(C)(C)C=C(C#N)C(=O)N1CCC[C@@H](n2nc(-c3ccc(Oc4ccccc4)cc3)c3c(N)ncnc32)C1 [29 A, (R)-2-(3-(4-amino-3-(4-phenoxyphenyl)-1H-pyrazolo[3,4-d]pyrimidin-1-yl)piperidine-1-carbonyl)-4,4-dimethylpent-2-enenitrile] |  | 2.7 |  |
| CC(C)(C)C=C(C#N)C(=O)NC1CCC(n2nc(-c3ccc(NC(=O)c4ccc(C(F)(F)F)cc4)cc3)c3c(N)ncnc32)CC1 (centres unmarked) [8 (Cpd Table 2), N-(4-(4-amino-1-((1r,4r)-4-(2-cyano-4,4-dimethylpent-2-enamido)cyclohexyl)-1H-pyrazolo[3,4-d]pyrimidin-3-yl)phenyl)-4-(trifluoromethyl)benzamide] | > 1000 |  |  |
| N#CC(=CC1CC1)C(=O)N1CCC[C@@H](n2cc(-c3ccc(Oc4ccccc4)cc3)c3c(N)ncnc32)C1 [Example 27, (R)-2-(3-(4-amino-5-(4-phenoxyphenyl)-7H-pyrrolo[2,3-d]pyrimidin-7-yl)piperidine-1-carbonyl)-3-cyclopropylacrylonitrile] |  |  | Compound in solution in the denatured or digested state? (protein target): yes; Compound in solution in the native state? (protein target): depleted in the folded state and no |
| N#CC(=CC1CC1)C(=O)N1CCC[C@H]1Cn1nc(-c2ccc(Oc3cc(F)cc(F)c3)cc2)c2c(N)ncnc21 [Example 25B, (S)-2-(2-((4-amino-3-(4-(3,5-difluorophenoxy)phenyl)-1H-pyrazolo[3,4-d]pyrimidin-1-yl)methyl)pyrrolidine-1-carbonyl)-3-cyclopropylacrylonitrile] |  | 140 |  |
| CC(C)(C=C(C#N)C(=O)N1CCC[C@@H](n2nc(-c3ccc(Oc4cccc(F)c4F)cc3F)c3c(N)ncnc32)C1)N1CCOCC1 [Example 162A, (R)-2-(3-(4-amino-3-(4-(2,3-difluorophenoxy)-2-fluorophenyl)-1H-pyrazolo[3,4-d]pyrimidin-1-yl)piperidine-1-carbonyl)-4-methyl-4-morpholinopent-2-enenitrile] | 0.9 |  |  |
| CC(C)C=C(C#N)C(=O)N1CCC[C@H]1Cn1nc(-c2ccc(Oc3cccc(F)c3)cc2F)c2c(N)ncnc21 [Example 73B, (S)-2-(2-((4-amino-3-(2-fluoro-4-(3-fluorophenoxy)phenyl)-1H-pyrazolo[3,4-d]pyrimidin-1-yl)methyl)pyrrolidine-1-carbonyl)-4-methylpent-2-enenitrile] |  | 11 |  |
| Cc1cc(Oc2ccccc2)ccc1-c1nn(C[C@H]2CCCN2C(=O)C(C#N)=CC2CC2)c2ncnc(N)c12 [Example 69A, (R)-2-(2-((4-amino-3-(2-methyl-4-phenoxyphenyl)-1H-pyrazolo[3,4-d]pyrimidin-1-yl)methyl)pyrrolidine-1-carbonyl)-3-cyclopropylacrylonitrile] |  | 5 |  |
| N#CC(=CC1CC1)C(=O)N1CCC[C@@H]1Cn1nc(-c2ccc(Oc3cccc(F)c3)cc2)c2c(N)ncnc21 [Example 24A, (R)-2-(2-((4-amino-3-(4-(3-fluorophenoxy)phenyl)-1H-pyrazolo[3,4-d]pyrimidin-1-yl)methyl)pyrrolidine-1-carbonyl)-3-cyclopropylacrylonitrile] | 6.2 |  |  |
| CC(C)C=C(C#N)C(=O)N1CCC[C@H]1Cn1nc(-c2ccc(Oc3c(F)cccc3F)cc2)c2c(N)ncnc21 [Example 75B, (S)-2-(2-((4-amino-3-(4-(2,6-difluorophenoxy)phenyl)-1H-pyrazolo[3,4-d]pyrimidin-1-yl)methyl)pyrrolidine-1-carbonyl)-4-methylpent-2-enenitrile] |  | 100 |  |
| CC1(C=C(C#N)C(=O)N2CCC[C@H]2Cn2nc(-c3ccc(Oc4ccccc4)cc3F)c3c(N)ncnc32)COC1 [Example 197B] | 32.5 |  |  |
| N#CC(=CC1CC1)C(=O)N1CCC[C@@H]1Cn1nc(-c2ccc(Oc3cc(F)cc(F)c3)cc2F)c2c(N)ncnc21 [Example 41A, (R)-2-(2-((4-amino-3-(2-fluoro-4-(3,5-difluorophenoxy)phenyl)-1H-pyrazolo[3,4-d]pyrimidin-1-yl)methyl)pyrrolidine-1-carbonyl)-3-cyclopropylacrylonitrile] |  | 3.2 |  |
| CC(C)C=C(C#N)C(=O)N1CCC[C@H]1Cn1nc(-c2ccc(Oc3cccc(F)c3F)cc2)c2c(N)ncnc21 [Example 76B, (S)-2-(2-((4-amino-3-(4-(2,3-difluorophenoxy)phenyl)-1H-pyrazolo[3,4-d]pyrimidin-1-yl)methyl)pyrrolidine-1-carbonyl)-4-methylpent-2-enenitrile] |  | 7 |  |
| N#CC(=CC1CC1)C(=O)N1CCC[C@@H]1Cn1nc(-c2ccc(Oc3cc(F)cc(F)c3)cc2)c2c(N)ncnc21 [Example 25A, (R)-2-(2-((4-amino-3-(4-(3,5-difluorophenoxy)phenyl)-1H-pyrazolo[3,4-d]pyrimidin-1-yl)methyl)pyrrolidine-1-carbonyl)-3-cyclopropylacrylonitrile] |  | 9.6 |  |
| N#CC(=CC1CC1)C(=O)N1CCCC1Cn1nc(-c2ccc(Oc3ccccc3)cc2)c2c(N)ncnc21 (centres unmarked) [Example 22B] | 2.6 |  |  |
| N#CC(=CC1CC1)C(=O)N1CCC[C@@H]1Cn1nc(-c2ccc(Oc3c(F)cccc3F)cc2)c2c(N)ncnc21 [Example 32A, (R)-2-(2-((4-amino-3-(4-(2,6-difluorophenoxy)phenyl)-1H-pyrazolo[3,4-d]pyrimidin-1-yl)methyl)pyrrolidine-1-carbonyl)-3-cyclopropylacrylonitrile] |  | 1.7 |  |
| C=CC(=O)N1CCC[C@@H](n2nc(-c3ccc(Oc4ccccc4)cc3)c3c(N)ncnc32)C1 [acrylamide-containing compound 1, reference compound] |  |  | Compound in solution in the denatured or digested state? (protein target): depleted from solution in both the native and perturbed state; Compound in solution in the native state? (protein target): depleted from solution in both the native and perturbed state |
| NC(=O)C(=CC1CC1)C(=O)N1CCC[C@@H](n2nc(-c3ccc(Oc4c(F)cccc4F)cc3)c3c(N)ncnc32)C1 [Example 36A, (R)-2-(3-(4-amino-3-(4-(2,6-difluorophenoxy)phenyl)-1H-pyrazolo[3,4-d]pyrimidin-1-yl)piperidine-1-carbonyl)-3 cyclopropylacrylamide] | 4.3 |  |  |
| CC(C)(C)C=C(C#N)C(=O)NC1CCC(n2nc(-c3ccc(NC(=O)c4ccc(C(F)(F)F)cc4)cc3)c3c(N)ncnc32)CC1 (centres unmarked) [10 (Cpd Table 2), N-(4-(4-amino-1-((1s,4s)-4-(2-cyano-4,4-dimethylpent-2-enamido)cyclohexyl)-1H-pyrazolo[3,4-d]pyrimidin-3-yl)phenyl)-4-(trifluoromethyl)benzamide] | > 1000 |  |  |
| CCOC(C)(C)C=C(C#N)C(=O)N1CCC[C@@H](n2nc(-c3ccc(Oc4cccc(F)c4F)cc3F)c3c(N)ncnc32)C1 [Example 156A, (R)-2-(3-(4-amino-3-(4-(2,3-difluorophenoxy)-2-fluorophenyl)-1H-pyrazolo[3,4-d]pyrimidin-1-yl)piperidine-1-carbonyl)-4-ethoxy-4-methylpent-2-enenitrile] | 7.3 |  |  |
| CC(C)(N)C=C(C#N)C(=O)N1CCC[C@H]1Cn1nc(-c2ccc(Oc3cccc(F)c3)cc2F)c2c(N)ncnc21 [Example 72B, (S)-4-amino-2-(2-((4-amino-3-(2-fluoro-4-(3-fluorophenoxy)phenyl)-1H-pyrazolo[3,4-d]pyrimidin-1-yl)methyl)pyrrolidine-1-carbonyl)-4-methylpent-2-enenitrile] | 28 |  |  |
| C[C@@H](Cn1nc(-c2ccc(Oc3ccccc3)cc2F)c2c(N)ncnc21)NC(=O)C(C#N)=CC(C)(C)N(C)C [Example 185B, (S)-N-(1-(4-amino-3-(2-fluoro-4-phenoxyphenyl)-1H-pyrazolo[3,4-d]pyrimidin-1-yl)propan-2-yl)-2-cyano-4-(dimethylamino)-4-methylpent-2-enamide] |  | 11 |  |
| CCNC(C)(C)C=C(C#N)C(=O)N1CCCC1Cn1nc(-c2ccc(Oc3ccccc3)cc2F)c2c(N)ncnc21 (stereo in doubt) [Example 85B, (R)-2-(2-((4-amino-3-(2-fluoro-4-phenoxyphenyl)-1H-pyrazolo[3,4-d]pyrimidin-1-yl)methyl)pyrrolidine-1-carbonyl)-4-(ethylamino)-4-methylpent-2-enenitrile] | 17.2 |  |  |
| NC(=O)C(=CC1CC1)C(=O)N1CCC[C@@H](n2nc(-c3ccc(Oc4cccc(F)c4)cc3)c3c(N)ncnc32)C1 [Example 15A, (R)-2-(3-(4-amino-3-(4-(3-fluorophenoxy)phenyl)-1H-pyrazolo[3,4-d]pyrimidin-1-yl)piperidine-1-carbonyl)-3-cyclopropylacrylamide] | 1.7 |  |  |
